21 compounds from US20260365682A1, “MODULATORS OF TNF-ALPHA ACTIVITY” (Forward Therapeutics, Inc., priority 2022, published 2026) can be followed below.

Read-outs that look alike come from different tables or passages of the source.

The target in this test is T1, TNF-α (Homo sapiens, UniProt P01375).
T1 construct: purchased R&D 210-TA-020/CF
Put plainly: TNF-α Induced HEK Blue Cellular Assay (secreted alkaline phosphatase expression, QUANTI-Blue). It is filed as cell-based. As to conditions: HEK Blue TNFα reporter cells, TNF-α 100 μg/ml, 24 hrs at 37° C., inhibition of secreted alkaline phosphatase. The essentials:
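HEK Blue TNFα reporter cells (10,000/well) in DMEM with 10% FBS received compound ([…] to 0.5 nM final) and TNF-α at […] final for 24 h at 37° C. Secreted alkaline phosphatase read with QUANTI-Blue at 620 nm. IC50 came from a 4-parameter logistic fit after normalising to unstimulated and stimulated DMSO controls.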

T1 sequence (P01375 77-233 limits assumed): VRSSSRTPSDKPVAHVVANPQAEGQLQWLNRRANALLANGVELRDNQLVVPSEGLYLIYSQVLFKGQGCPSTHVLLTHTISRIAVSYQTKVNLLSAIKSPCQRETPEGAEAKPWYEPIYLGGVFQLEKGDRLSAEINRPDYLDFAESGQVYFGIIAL

`[2H]C([2H])([2H])N1C(=O)c2cccc(OC(F)F)c2[C@H]2C[C@@H]1c1nc3ccc(C#CCN4CC(F)(F)C4)cc3n12` [Example 231, (7R,14R)-11-(3-(3,3-difluoroazetidin-1-yl)prop-1-yn-1-yl)-1-(difluoromethoxy)-6-(methyl-d3)-6,7-dihydro-7,14-methanobenzo[f]benzo[4,5]imidazo[1,2-a][1,4]diazocin-5(14H)-one]: where the note is “read-out: IC50 value”, the 50% inhibitory concentration (IC50) (commonly the concentration at which inhibition is half-maximal) is < 0.1 µM.
Same read-out and setting: the result for `[2H]C([2H])([2H])N1C(=O)c2cccc(OC(F)F)c2[C@H]2C[C@@H]1c1nc3ccc(C#CCN4CC(F)C4)cc3n12` [Example 232, (7R,14R)-1-(difluoromethoxy)-11-(3-(3-fluoroazetidin-1-yl)prop-1-yn-1-yl)-6-(methyl-d3)-6,7-dihydro-7,14-methanobenzo[f]benzo[4,5]imidazo[1,2-a][1,4]diazocin-5(14H)-one] reads 0.1 to 1 µM; that for `[2H]C([2H])([2H])N1C(=O)c2cccc(OC(F)F)c2[C@H]2C[C@@H]1c1nc3ccc(C#CCCN4CC(F)(F)C4)cc3n12` [Example 233, (7R,14R)-11-(4-(3,3-difluoroazetidin-1-yl)but-1-yn-1-yl)-1-(difluoromethoxy)-6-(methyl-d3)-6,7-dihydro-7,14-methanobenzo[f]benzo[4,5]imidazo[1,2-a][1,4]diazocin-5(14H)-one], < 0.1 µM.
The same measure, in the same setting: the result for `[2H]C([2H])([2H])N1C(=O)c2cccc(OC(F)F)c2[C@H]2C[C@@H]1c1nc3ccc(C#CC4CCN(C5CC5)C4)cc3n12` (stereo partly drawn) [Example 234, (7R,14R)-11-((1-cyclopropylpyrrolidin-3-yl)ethynyl)-1-(difluoromethoxy)-6-(methyl-d3)-6,7-dihydro-7,14-methanobenzo[f]benzo[4,5]imidazo[1,2-a][1,4]diazocin-5(14H)-one] reads < 0.1 µM; that for `[2H]C([2H])([2H])N1C(=O)c2cccc(OC(F)F)c2[C@H]2C[C@@H]1c1nc3ccc(C#CCN4CC[C@H](F)C4)cc3n12` [Example 235, (7R,14R)-1-(difluoromethoxy)-11-(3-((S)-3-fluoropyrrolidin-1-yl)prop-1-yn-1-yl)-6-(methyl-d3)-6,7-dihydro-7,14-methanobenzo[f]benzo[4,5]imidazo[1,2-a][1,4]diazocin-5(14H)-one], < 0.1 µM; that for `[2H]C([2H])([2H])N1C(=O)c2cccc(OC(F)F)c2[C@H]2C[C@@H]1c1nc3ccc(C#CCN4CC[C@@H](F)C4)cc3n12` [Example 236, (7R,14R)-1-(difluoromethoxy)-11-(3-((R)-3-fluoropyrrolidin-1-yl)prop-1-yn-1-yl)-6-(methyl-d3)-6,7-dihydro-7,14-methanobenzo[f]benzo[4,5]imidazo[1,2-a][1,4]diazocin-5(14H)-one], < 0.1 µM.
As to `[2H]C([2H])([2H])N1C(=O)c2cccc(OC(F)F)c2[C@H]2C[C@@H]1c1nc3ccc(C#CC4CCN(C5COC5)C4)cc3n12` (stereo partly drawn) [Example 237, (7R,14R)-1-(difluoromethoxy)-6-(methyl-d3)-11-((1-(oxetan-3-yl)pyrrolidin-3-yl)ethynyl)-6,7-dihydro-7,14-methanobenzo[f]benzo[4,5]imidazo[1,2-a][1,4]diazocin-5(14H)-one], for the setting “read-out: IC50 value”, the IC50 was < 0.1 µM.
For `[2H]C([2H])([2H])N1C(=O)c2cccc(OC(F)F)c2[C@H]2C[C@@H]1c1nc3ccc(C#CC4CN(C(C)C(F)F)C4)cc3n12` (stereo partly drawn) [Example 238, (7R,14R)-1-(difluoromethoxy)-11-((1-(1,1-difluoropropan-2-yl)azetidin-3-yl)ethynyl)-6-(methyl-d3)-6,7-dihydro-7,14-methanobenzo[f]benzo[4,5]imidazo[1,2-a][1,4]diazocin-5(14H)-one], the IC50 (read-out: IC50 value) is < 0.1 µM.
Consider `[2H]C([2H])([2H])N1C(=O)c2cccc(OC(F)F)c2[C@H]2C[C@@H]1c1nc3ccc(C#CCNC4CC4)cc3n12` [Example 241, (7R,14R)-11-(3-(cyclopropylamino)prop-1-yn-1-yl)-1-(difluoromethoxy)-6-(methyl-d3)-6,7-dihydro-7,14-methanobenzo[f]benzo[4,5]imidazo[1,2-a][1,4]diazocin-5(14H)-one], for which the half-inhibitory concentration (IC50) (IC50 value) was < 0.1 µM.
As for `[2H]C([2H])([2H])N1C(=O)c2cccc(OC(F)F)c2[C@H]2C[C@@H]1c1nc3ccc(C#CCNC4COC4)cc3n12` [Example 242, (7R,14R)-1-(difluoromethoxy)-6-(methyl-d3)-11-(3-(oxetan-3-ylamino)prop-1-yn-1-yl)-6,7-dihydro-7,14-methanobenzo[f]benzo[4,5]imidazo[1,2-a][1,4]diazocin-5(14H)-one], the 50% inhibitory concentration (IC50) (IC50 value) is < 0.1 µM.
Regarding `[2H]C([2H])([2H])N1C(=O)c2cccc(OC(F)F)c2[C@H]2C[C@@H]1c1nc3ccc(C#CC(F)F)cc3n12` [Example 247, (7R,14R)-1-(difluoromethoxy)-11-(3,3-difluoroprop-1-yn-1-yl)-6-(methyl-d3)-6,7-dihydro-7,14-methanobenzo[f]benzo[4,5]imidazo[1,2-a][1,4]diazocin-5(14H)-one], under “read-out: IC50 value”, the IC50 was < 0.1 µM.
`[2H]C([2H])([2H])N1C(=O)c2cccc(OC(F)F)c2[C@H]2C[C@@H]1c1nc3ccc(C#CC(C)CN4CC(F)C4)cc3n12` (stereo partly drawn) [Example 248, (7R,14R)-1-(difluoromethoxy)-11-(4-(3-fluoroazetidin-1-yl)-3-methylbut-1-yn-1-yl)-6-(methyl-d3)-6,7-dihydro-7,14-methanobenzo[f]benzo[4,5]imidazo[1,2-a][1,4]diazocin-5(14H)-one]: the half-maximal inhibitory concentration (IC50) (read-out: IC50 value) is 0.1 to 1 µM.
Take `[2H]C([2H])([2H])N1C(=O)c2cccc(OC(F)F)c2[C@H]2C[C@@H]1c1nc3ccc(C#Cc4cnc(N)nc4)cc3n12` [Example 249, (7R,14R)-11-((2-aminopyrimidin-5-yl)ethynyl)-1-(difluoromethoxy)-6-(methyl-d3)-6,7-dihydro-7,14-methanobenzo[f]benzo[4,5]imidazo[1,2-a][1,4]diazocin-5(14H)-one]: for the setting “read-out: IC50 value”, the half-inhibitory concentration (IC50) was < 0.1 µM.
On to `[2H]C([2H])([2H])N1C(=O)c2cccc(OC(F)F)c2[C@H]2C[C@@H]1c1nc3ccc(C#CC4(O)CN(C5COC5)C4)cc3n12` [Example 250, (7R,14R)-1-(difluoromethoxy)-11-((3-hydroxy-1-(oxetan-3-yl)azetidin-3-yl)ethynyl)-6-(methyl-d3)-6,7-dihydro-7,14-methanobenzo[f]benzo[4,5]imidazo[1,2-a][1,4]diazocin-5(14H)-one], for which, for the setting “read-out: IC50 value”, the IC50 is < 0.1 µM.
Turning to `[2H]C([2H])([2H])N1C(=O)c2cccc(OC(F)F)c2[C@H]2C[C@@H]1c1nc3ccc(C#CC4(O)CNC4)cc3n12` [Example 251, (7R,14R)-1-(difluoromethoxy)-11-((3-hydroxyazetidin-3-yl)ethynyl)-6-(methyl-d3)-6,7-dihydro-7,14-methanobenzo[f]benzo[4,5]imidazo[1,2-a][1,4]diazocin-5(14H)-one], the half-inhibitory concentration (IC50) (read-out: IC50 value) fell in the range of 10 to 30 µM.
Consider `[2H]C([2H])([2H])N1C(=O)c2cccc(OC(F)F)c2[C@H]2C[C@@H]1c1nc3ccc(C#CC4(F)CN(C5COC5)C4)cc3n12` [Example 252, (7R,14R)-1-(difluoromethoxy)-11-((3-fluoro-1-(oxetan-3-yl)azetidin-3-yl)ethynyl)-6-(methyl-d3)-6,7-dihydro-7,14-methanobenzo[f]benzo[4,5]imidazo[1,2-a][1,4]diazocin-5(14H)-one], for which the half-inhibitory concentration (IC50) (read-out: IC50 value) is < 0.1 µM.
For `[2H]C([2H])([2H])N1C(=O)c2cccc(OC(F)F)c2[C@H]2C[C@@H]1c1nc3ccc(C#CC4(F)CNC4)cc3n12` [Example 253, (7R,14R)-1-(difluoromethoxy)-11-((3-fluoroazetidin-3-yl)ethynyl)-6-(methyl-d3)-6,7-dihydro-7,14-methanobenzo[f]benzo[4,5]imidazo[1,2-a][1,4]diazocin-5(14H)-one], the half-inhibitory concentration (IC50) (read-out: IC50 value) was < 0.1 µM.
As for `[2H]C([2H])([2H])N1C(=O)c2cccc(OC(F)F)c2[C@H]2C[C@@H]1c1nc3ccc(C#C[C@H]4C[C@H](NC)C4)cc3n12` [Example 254, (7R,14R)-1-(difluoromethoxy)-6-(methyl-d3)-11-(((1r,3R)-3-(methylamino)cyclobutyl)ethynyl)-6,7-dihydro-7,14-methanobenzo[f]benzo[4,5]imidazo[1,2-a][1,4]diazocin-5(14H)-one], the IC50 (read-out: IC50 value) was < 0.1 µM.
Regarding `[2H]C([2H])([2H])N1C(=O)c2cccc(OC(F)F)c2[C@H]2C[C@@H]1c1nc3ccc(C#Cc4ccc(NC(C)=O)nc4)cc3n12` [Example 255, N-(5-(((7R,14R)-1-(difluoromethoxy)-6-(methyl-d3)-5-oxo-5,6,7,14-tetrahydro-7,14-methanobenzo[f]benzo[4,5]imidazo[1,2-a][1,4]diazocin-11-yl)ethynyl)pyridin-2-yl)acetamide], the concentration for half-maximal inhibition (IC50) (read-out: IC50 value) is < 0.1 µM.
For `[2H]C([2H])([2H])N1C(=O)c2cccc(OC(F)F)c2[C@H]2C[C@@H]1c1nc3ccc(C#CC4CN(C5COC5)C4(C)C)cc3n12` (stereo partly drawn) [Example 256, (7R,14R)-1-(difluoromethoxy)-11-((2,2-dimethyl-1-(oxetan-3-yl)azetidin-3-yl)ethynyl)-6-(methyl-d3)-6,7-dihydro-7,14-methanobenzo[f]benzo[4,5]imidazo[1,2-a][1,4]diazocin-5(14H)-one], the IC50 (read-out: IC50 value) is < 0.1 µM.
Still for that read-out and setting: the result for `[2H]C([2H])([2H])N1C(=O)c2cccc(OC(F)F)c2[C@H]2C[C@@H]1c1nc3ccc(C#Cc4cnc(NC(C)=O)nc4)cc3n12` [Example 259, N-(5-(((7R,14R)-1-(difluoromethoxy)-6-(methyl-d3)-5-oxo-5,6,7,14-tetrahydro-7,14-methanobenzo[f]benzo[4,5]imidazo[1,2-a][1,4]diazocin-11-yl)ethynyl)pyrimidin-2-yl)acetamide] reads < 0.1 µM.
